Source: patent publication US20100022521A1, “COMPOUNDS” (Hansa Metallwerke AG, priority 2005, published 2010)

Target: mGluR5 (UniProt P31424)
Assay: MGluR5 receptor binding test ([3H]-M-MPEP displacement)
Design: species or system rat
Settings: radioligand [3H]-M-MPEP (2 nM); species not given; read-out: mGlu5 Ki
Method: MGluR5 Receptor Binding Tests
Rat cerebro-cortical membrane preparation was used to determine the binding characteristics of reference compounds and novel compounds to the rat mGluR5. The A18 cell line expressing hmGluR5a (purchased from Euroscreen) was used to determine binding characteristics of the chemical compounds to the human mGluR5a receptor. As radioligand [3H]-M-MPEP (2 nM) was used. The nonspecific binding was determined in the presence of 10 μM M-MPEP.

Row | Compound | Ki
1 | O=S(=O)(c1ccccc1Cl)c1sc2ncccc2c1-c1ccc(Cl)cc1 [Compound 6] | 500 to 1500 nM
2 | CC1CCN(S(=O)(=O)c2sc3ncccc3c2-c2ccc(Cl)cc2)CC1 [Compound 20, 3-(4-Chlorophenyl)-2-(4-methyl-piperidine-1-sulfonyl)-thieno[2,3-b]pyridine] | 500 to 1500 nM
3 | Cc1cccc(S(=O)(=O)c2sc3ncccc3c2-c2ccc(Cl)cc2)c1 [Compound 22] | < 500 nM
4 | Cc1ccc(S(=O)(=O)c2sc3ncccc3c2-c2ccc(F)cc2)cc1Cl [Compound 23] | < 500 nM
5 | Cc1ccc(S(=O)(=O)c2sc3ncccc3c2-c2ccc(F)cc2)cc1C [Compound 24] | < 500 nM
6 | O=S(=O)(c1ccc(Br)cc1)c1sc2ncccc2c1-c1ccc(Cl)cc1 [Compound 25] | < 500 nM
7 | Cc1ccc(-c2c(S(=O)(=O)c3cccc(C)c3)sc3ncccc23)cc1 [Compound 26] | < 500 nM
8 | Cc1ccc(-c2c(S(=O)(=O)c3ccc(C)cc3)sc3ncccc23)cc1 [Compound 27] | < 500 nM
9 | N#Cc1cccc(S(=O)(=O)c2sc3ncccc3c2-c2ccc(F)cc2)c1 [Compound 29] | < 500 nM
10 | N#Cc1cc(F)cc(S(=O)(=O)c2sc3ncccc3c2-c2ccc(F)cc2)c1 [Compound 30] | < 500 nM
11 | O=S(=O)(c1cccc(F)c1)c1sc2ncccc2c1-c1ccc(Cl)cc1 [Compound 31] | < 500 nM
12 | CC1CCCN(c2c(S(=O)(=O)c3cccc(C#N)c3)sc3ncccc23)C1 (stereo not shown) [Compound 32] | < 500 nM
13 | O=S(=O)(c1cc(F)cc(C(F)(F)F)c1)c1sc2ncccc2c1-c1ccc(Cl)cc1 [Compound 34] | < 500 nM
14 | Cc1ccc(-c2c(S(=O)(=O)c3cccc(Cl)c3)sc3ncccc23)cc1 [Compound 37] | < 500 nM
15 | Cc1ccc(S(=O)(=O)c2sc3ncccc3c2-c2ccc(Cl)cc2)cc1F [Compound 39] | < 500 nM
16 | O=S(=O)(c1ccc(Cl)cc1)c1sc2ncccc2c1-c1ccc(Cl)c(Cl)c1 [Compound 41] | < 500 nM
17 | N#Cc1ccc(S(=O)(=O)c2sc3ncccc3c2-c2cccc(Cl)c2)cc1 [Compound 42] | < 500 nM
18 | O=S(=O)(c1ccc(Cl)cc1)c1sc2nc(Cl)ccc2c1-c1ccc(Cl)cc1 [Compound 43, 6-chloro-2-(4-chloro-benzenesulfonyl)-3-(4-chloro-phenyl)-thieno[2,3-b]pyridine] | < 500 nM
19 | Cc1cc(C)cc(S(=O)(=O)c2sc3ncccc3c2-c2ccc(Cl)cc2)c1 [Compound 44] | < 500 nM
20 | O=S(=O)(c1ccc(Br)s1)c1sc2ncccc2c1-c1ccc(Cl)cc1 [Compound 45] | < 500 nM
21 | O=S(=O)(c1ccc(Cl)cc1)c1sc2ncccc2c1N1CCOCC1 [Compound 46] | < 500 nM
22 | CN(C)c1ccc2c(-c3ccc(Cl)cc3)c(S(=O)(=O)c3ccc(Cl)cc3)sc2n1 [Compound 47, 2-(4-Chloro-benzenesulfonyl)-3-(4-chloro-phenyl)-6-dimethylamino-thieno[2,3-b]pyridine] | 500 to 1500 nM
23 | Nc1ccc2c(-c3ccc(Cl)cc3)c(S(=O)(=O)c3ccc(Cl)cc3)sc2n1 [Compound 49, 6-Amino-2-(4-chloro-benzenesulfonyl)-3-(4-chloro-phenyl)-thieno[2,3-b]pyridine] | < 500 nM
24 | Cc1cccc(S(=O)(=O)c2sc3nc(Cl)ccc3c2-c2ccc(Cl)cc2)c1 [Compound 50] | < 500 nM
25 | N#Cc1cccc(S(=O)(=O)c2sc3nc(Cl)ccc3c2-c2ccc(Cl)cc2)c1 [Compound 51] | > 1500 nM
26 | O=S(=O)(c1cccc(Cl)c1)c1sc2ncccc2c1-c1ccc(F)cc1 [Compound 54] | < 500 nM

Row | Compound | Ki
27 | Cc1ccc(S(=O)(=O)c2sc3ncccc3c2-c2ccc(F)cc2)cc1 [Compound 55] | < 500 nM
28 | Cc1cc(C)c(S(=O)(=O)c2sc3ncccc3c2-c2ccc(Cl)cc2)c(C)c1 [Compound 56] | > 1500 nM
29 | O=S(=O)(c1ccc(Cl)cc1)c1sc2nccc(Cl)c2c1-c1ccc(Cl)cc1 [Compound 57, 4-Chloro-2-(4-chloro-benzenesulfonyl)-3-(4-chloro-phenyl)-thieno[2,3-b]pyridine] | < 500 nM
30 | O=S(=O)(c1ccc(Cl)cc1)c1sc2nc(F)ccc2c1-c1ccc(Cl)cc1 [Compound 58] | < 500 nM
31 | O=S(=O)(c1ccc(Cl)cc1)c1sc2ncccc2c1-c1cccc(Cl)c1 [Compound 60] | < 500 nM
32 | Cc1cccc(S(=O)(=O)c2sc3ncccc3c2-c2ccc(F)cc2)c1 [Compound 61] | < 500 nM
33 | Cc1ccc(S(=O)(=O)c2sc3ncccc3c2-c2ccc(Cl)cc2)cc1C [Compound 62] | < 500 nM
34 | Cc1ccc(S(=O)(=O)c2sc3ncccc3c2-c2ccc(Cl)cc2)cc1Cl [Compound 63] | < 500 nM
35 | COc1ccc2c(-c3ccc(Cl)cc3)c(S(=O)(=O)c3cccc(C#N)c3)sc2n1 [Compound 64, 2-(3-Cyano-benzenesulfonyl)-3-(4-chloro-phenyl)-6-methoxy-thieno[2,3-b]pyridine] | < 500 nM
36 | N#Cc1cccc(S(=O)(=O)c2sc3nc(F)ccc3c2-c2ccc(Cl)cc2)c1 [Compound 65] | < 500 nM
37 | N#Cc1cccc(-c2c(S(=O)(=O)c3cccc(C#N)c3)sc3ncccc23)c1 [Compound 66] | < 500 nM
38 | O=S(=O)(c1ccc(C(F)(F)F)cc1)c1sc2ncccc2c1-c1ccc(Cl)cc1 [Compound 68] | < 500 nM
39 | N#Cc1ccc(-c2c(S(=O)(=O)c3cccc(C#N)c3)sc3ncccc23)cc1 [Compound 69] | < 500 nM
40 | COc1cccc(S(=O)(=O)c2sc3ncccc3c2-c2ccc(Cl)cc2)c1 [Compound 70] | < 500 nM
41 | CN(C)c1ccc(S(=O)(=O)c2sc3ncccc3c2-c2ccc(Cl)cc2)cc1 [Compound 71] | < 500 nM
42 | O=[N+]([O-])c1cnc2sc(S(=O)(=O)c3ccc(Cl)cc3)c(-c3ccc(Cl)cc3)c2c1 [Compound 72, 2-(4-chloro-benzenesulfonyl)-3-(4-chloro-phenyl)-5-nitro-thieno[2,3-b]pyridine] | 500 to 1500 nM
43 | N#Cc1cccc(S(=O)(=O)c2sc3ncccc3c2-c2ccncc2)c1 [Compound 73] | < 500 nM
44 | N#Cc1cccc(S(=O)(=O)c2sc3nc(Cl)ccc3c2-c2ccc(F)cc2)c1 [Compound 74] | < 500 nM
45 | O=S(=O)(c1cccc(F)c1)c1sc2nc(Cl)ccc2c1-c1ccc(Cl)cc1 [Compound 76] | 500 to 1500 nM
46 | O=S(=O)(c1cccc(F)c1)c1sc2nc(F)ccc2c1-c1ccc(Cl)cc1 [Compound 77] | < 500 nM
47 | Cc1ccc(S(=O)(=O)c2sc3nc(Cl)ccc3c2-c2ccc(Cl)cc2)cc1F [Compound 81] | < 500 nM
48 | COc1ccc(-c2c(S(=O)(=O)c3cccc(C#N)c3)sc3ncccc23)cc1 [Compound 84] | < 500 nM
49 | CS(=O)(=O)Nc1cnc2sc(S(=O)(=O)c3ccc(Cl)cc3)c(-c3ccc(Cl)cc3)c2c1 [Compound 85, N-[2-(4-Chloro-benzenesulfonyl)-3-(4-chloro-phenyl)-thieno[2,3-b]pyridin-5-yl]-methanesulfonamide] | < 500 nM
50 | N#Cc1cc(F)cc(S(=O)(=O)c2sc3nc(Cl)ccc3c2-c2ccc(Cl)cc2)c1 [Compound 86, 2-(3-Cyano-5-fluoro-benzenesulfonyl)-3-(4-chloro-phenyl)-6-chloro-thieno[2,3-b]pyridine] | < 500 nM
51 | O=S(=O)(c1cc(F)cc(F)c1)c1sc2ncccc2c1-c1ccc(Cl)cc1 [Compound 87] | < 500 nM
52 | CC(C)c1ccc(S(=O)(=O)c2sc3ncccc3c2-c2ccc(Cl)cc2)cc1 [Compound 88] | < 500 nM
